Assay results reported in patent publication US10183944B2 (Asana Biosciences, LLC, priority 2011, dated 2019).

Columns and labels:
JAK2 = JAK2 (Homo sapiens (Human), UniProt O60674); test: Inhibition of enzymatic JAK2 kinase activity (TR-FRET); type: biochemical; conditions: read-out: IC50 JAK
Outline: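 TR-FRET read-out (Eu antibody donor, Ulight poly Glu-Tyr acceptor, 665/615 nm ratio) after a 60 min RT kinase reaction with ATP, begun following 30 min compound–enzyme preincubation. Stopped by EDTA; inhibition expressed as 100 minus % activity of positive control.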

[1] = target: Syk (356-635 amino acids) catalytic domain (Homo sapiens (Human), UniProt P43405); test: Inhibition of enzymatic Syk kinase activity (radiometric); type: biochemical; conditions: read-out: IC50 Syk
Outline: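 Radiometric filter-binding format: 32P transfer from γ-32P-ATP onto pG4T, scintillation-counted after acid washes of P81 paper. Syk kinase domain (356-635), 0.035–7.5 ng per reaction, was exposed to compound for 30 minutes at room temperature before a 10-minute, 30° C. reaction with ATP (100 μM stock). Inhibition derived from counts with versus without compound.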

JAK2, sequence (O60674 808-1132): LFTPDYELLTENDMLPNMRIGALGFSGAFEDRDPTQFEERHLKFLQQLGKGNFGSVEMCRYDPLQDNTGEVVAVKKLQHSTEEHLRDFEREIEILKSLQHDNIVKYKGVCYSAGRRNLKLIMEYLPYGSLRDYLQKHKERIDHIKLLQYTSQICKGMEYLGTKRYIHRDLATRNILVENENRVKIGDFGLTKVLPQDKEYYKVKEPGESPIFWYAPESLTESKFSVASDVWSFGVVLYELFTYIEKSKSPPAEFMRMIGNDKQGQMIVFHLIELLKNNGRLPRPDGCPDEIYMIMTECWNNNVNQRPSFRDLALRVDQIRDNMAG

SMILES	IC50 (JAK2)	IC50 [1]
CCN1CCN(CCc2ccc(Nc3nc(N4CCC(CC#N)CC4)nc4cn[nH]c(=O)c34)cc2)CC1 [Example 197, 2-(1-(4-((4-(2-(4-ethylpiperazin-1-yl)ethyl)phenyl)amino)-5-oxo-5,6-dihydropyrimido[4,5-d]pyridazin-2-yl)piperidin-4-yl)acetonitrile]	< 10 nM	< 10 nM
O=c1[nH]ncc2nc(N3CCCCCC3)nc(Nc3ccc(CCN4CCNCC4)cc3)c12 [Example 198, 2-(azepan-1-yl)-4-((4-(2-(piperazin-1-yl)ethyl)phenyl)amino)pyrimido[4,5-d]pyridazin-5(6H)-one]	< 10 nM	< 10 nM
NCCOc1ccc(Nc2nc(N3CCCCCC3)nc3cn[nH]c(=O)c23)cc1 [Example 199, 4-((4-(2-aminoethoxy)phenyl)amino)-2-(azepan-1-yl)pyrimido[4,5-d]pyridazin-5(6H)-one]	< 10 nM	< 10 nM
O=c1[nH]ncc2nc(N3CCCCCC3)nc(Nc3ccc(N4CCC(CO)CC4)cc3)c12 [Example 202, 2-(azepan-1-yl)-4-((4-(4-(hydroxymethyl)piperidin-1-yl)phenyl)amino) pyrimido[4,5-d]pyridazin-5(6H)-one]	< 10 nM	< 50 nM
O=c1[nH]ncc2nc(N3CCCCCC3)nc(Nc3ccc(OCCN4CCC(CO)CC4)cc3)c12 [Example 203, 2-(azepan-1-yl)-4-((4-(2-(4-(hydroxymethyl)piperidin-1-yl)ethoxy)phenyl)amino)pyrimido[4,5-d]pyridazin-5(6H)-one]	< 10 nM	< 50 nM
N#CCC1CCN(c2nc(Nc3ccc(N4CCC(CCCO)CC4)cc3)c3c(=O)[nH]ncc3n2)CC1 [Example 205, 2-(1-(4-((4-(4-(3-hydroxypropyl)piperidin-1-yl)phenyl)amino)-5-oxo-5,6-dihydropyrimido[4,5-d]pyridazin-2-yl)piperidin-4-yl)acetonitrile]	< 50 nM	< 50 nM
N#CCN1CCN(c2ccc(Nc3nc(N4CCCCCC4)nc4cn[nH]c(=O)c34)cc2)CC1 [Example 206, 2-(4-(4-((2-(azepan-1-yl)-5-oxo-5,6-dihydropyrimido[4,5-d]pyridazin-4-yl)amino)phenyl)piperazin-1-yl) acetonitrile]	< 10 nM	< 50 nM
N#CCC1CCN(c2nc(Nc3ccc(N4CCN(CC#N)CC4)cc3)c3c(=O)[nH]ncc3n2)CC1 [Example 207, 2-(1-(4-((4-(4-(cyanomethyl)piperazin-1-yl)phenyl)amino)-5-oxo-5,6-dihydropyrimido[4,5-d]pyridazin-2-yl)piperidin-4-yl)acetonitrile]	< 10 nM	< 10 nM
O=c1[nH]ncc2nc(N3CCCCCC3)nc(Nc3ccc(N4CCC(O)CC4)nc3)c12 [Example 217, 2-(azepan-1-yl)-4-((6-(4-hydroxypiperidin-1-yl)pyridin-3-yl)amino)pyrimido[4,5-d]pyridazin-5(6H)-one]	< 50 nM	< 50 nM
N#CCC1CCN(c2nc(Nc3ccc(N4CCN(CCC(=O)O)CC4)cc3)c3c(=O)[nH]ncc3n2)CC1 [Example 220, 3-(4-(4-((2-(4-(cyanomethyl)piperidin-1-yl)-5-oxo-5,6-dihydropyrimido[4,5-d]pyridazin-4-yl)amino)phenyl)piperazin-1-yl)propanoic acid]	< 10 nM	< 10 nM
O=c1[nH]ncc2nc(N3CCCCCC3)nc(Nc3ccc(N4CCNCC4)nc3)c12 [Example 221, 2-(azepan-1-yl)-4-((6-(piperazin-1-yl)pyridin-3-yl)amino)pyrimido[4,5-d]pyridazin-5(6H)-one]	< 10 nM	< 50 nM
O=c1[nH]ncc2nc(N3CCCCCC3)nc(Nc3ccc(-c4nnn(CCO)n4)cc3)c12 [Example 222, 2-(azepan-1-yl)-4-((4-(2-(2-hydroxyethyl)-2H-tetrazol-5-yl)phenyl)amino) pyrimido[4,5-d]pyridazin-5(6H)-one]	< 50 nM	< 100 nM
CC(C)(O)C(=O)N1CCN(c2ccc(Nc3nc(N4CCC(CC#N)CC4)nc4cn[nH]c(=O)c34)cc2)CC1 [Example 223, 2-(1-(4-((4-(4-(2-hydroxy-2-methylpropanoyl)piperazin-1-yl)phenyl)amino)-5-oxo-5,6-dihydropyrimido[4,5-d]pyridazin-2-yl)piperidin-4-yl) acetonitrile]	< 10 nM	< 10 nM
CCN(CC)CCOc1ccc(Nc2nc(N3CCC(CC#N)CC3)nc3cn[nH]c(=O)c23)cc1 [Example 224, 2-(1-(4-((4-(2-(diethylamino)ethoxy)phenyl)amino)-5-oxo-5,6-dihydropyrimido[4,5-d]pyridazin-2-yl)piperidin-4-yl)acetonitrile]	< 50 nM	< 50 nM
O=c1[nH]ncc2nc(N3CCCCCC3)nc(Nc3ccc(-c4nn[nH]n4)cc3)c12 [Example 227, 4-((4-(2H-tetrazol-5-yl)phenyl)amino)-2-(azepan-1-yl)pyrimido[4,5-d]pyridazin-5(6H)-one]	< 10 nM	< 50 nM
CCN1CCN(c2ccc(Nc3nc(N4CCCCCC4)nc4cn[nH]c(=O)c34)cn2)CC1 [Example 229, 2-(azepan-1-yl)-4-((6-(4-ethylpiperazin-1-yl)pyridin-3-yl)amino)pyrimido[4,5-d]pyridazin-5(6H)-one]	< 10 nM	< 50 nM
N#CCC(=O)N1CCN(c2ccc(Nc3nc(N4CCCCCC4)nc4cn[nH]c(=O)c34)cn2)CC1 [Example 234, 3-(4-(5-((2-(azepan-1-yl)-5-oxo-5,6-dihydropyrimido[4,5-d]pyridazin-4-yl)amino)pyridin-2-yl)piperazin-1-yl)-3-oxopropanenitrile]	< 10 nM	< 50 nM
O=C(O)Cn1nnc(-c2ccc(Nc3nc(N4CCCCCC4)nc4cn[nH]c(=O)c34)cc2)n1 [Example 235, 2-(5-(4-((2-(azepan-1-yl)-5-oxo-5,6-dihydropyrimido[4,5-d]pyridazin-4-yl)amino)phenyl)-2H-tetrazol-2-yl)acetic acid]	< 50 nM	< 50 nM
O=c1[nH]ncc2nc(N3CCCCCC3)nc(Nc3ccc(N4CCC(CCO)CC4)nc3)c12 [Example 236, 2-(azepan-1-yl)-4-((6-(4-(2-hydroxyethyl)piperidin-1-yl)pyridin-3-yl)amino) pyrimido[4,5-d]pyridazin-5(6H)-one]	< 50 nM	< 100 nM
N#CCC(=O)N1CCN(c2ccc(Nc3nc(N4CCC(CC#N)CC4)nc4cn[nH]c(=O)c34)cn2)CC1 [Example 237, 3-(4-(5-((2-(4-(cyanomethyl)piperidin-1-yl)-5-oxo-5,6-dihydropyrimido[4,5-d]pyridazin-4-yl)amino)pyridin-2-yl)piperazin-1-yl)-3-oxopropanenitrile]	< 10 nM	< 50 nM
CC(C)(O)C(=O)N1CCN(c2ccc(Nc3nc(N4CCCCCC4)nc4cn[nH]c(=O)c34)cn2)CC1 [Example 238, 2-(azepan-1-yl)-4-((6-(4-(2-hydroxy-2-methylpropanoyl)piperazin-1-yl)pyridin-3-yl)amino)pyrimido[4,5-d]pyridazin-5(6H)-one]	< 10 nM	< 50 nM
O=c1[nH]ncc2nc(N3CCCCCC3)nc(Nc3ccc(OCCN4CCN(CCO)CC4)cc3)c12 [Example 239, 2-(azepan-1-yl)-4-((4-(2-(4-(2-hydroxyethyl)piperazin-1-yl)ethoxy)phenyl)amino)pyrimido[4,5-d]pyridazin-5(6H)-one]	< 50 nM	< 100 nM
N#CCC(=O)N1CCN(c2ccc(Nc3nc(N4CCC(CC#N)CC4)nc4cn[nH]c(=O)c34)cc2)CC1 [Example 240, 3-(4-(4-((2-(4-(cyanomethyl)piperidin-1-yl)-5-oxo-5,6-dihydropyrimido[4,5-d]pyridazin-4-yl)amino)phenyl)piperazin-1-yl)-3-oxopropanenitrile]	< 10 nM	< 50 nM
CN1CCN(c2ccc(Nc3nc(N4CCCCCC4)nc4cn[nH]c(=O)c34)cn2)CC1 [Example 242, 2-(azepan-1-yl)-4-((6-(4-methylpiperazin-1-yl)pyridin-3-yl)amino)pyrimido[4,5-d]pyridazin-5(6H)-one]	< 50 nM	< 50 nM
CN1CCN(c2ccc(Nc3nc(N4CCC(CC#N)CC4)nc4cn[nH]c(=O)c34)cn2)CC1 [Example 243, 2-(1-(4-((6-(4-methylpiperazin-1-yl)pyridin-3-yl)amino)-5-oxo-5,6-dihydropyrimido[4,5-d]pyridazin-2-yl)piperidin-4-yl)acetonitrile]	< 50 nM	< 50 nM
N#CCC1CCN(c2nc(Nc3ccc(-c4nn[nH]n4)cc3)c3c(=O)[nH]ncc3n2)CC1 [Example 245, 2-(1-(4-((4-(2H-tetrazol-5-yl)phenyl)amino)-5-oxo-5,6-dihydropyrimido[4,5-d]pyridazin-2-yl)piperidin-4-yl)acetonitrile]	< 50 nM	< 50 nM
N#CCC1CCN(c2nc(Nc3ccc(N4CCC(Cc5nn[nH]n5)CC4)cc3)c3c(=O)[nH]ncc3n2)CC1 [Example 246, 2-(1-(4-((4-(4-((2H-tetrazol-5-yl)methyl)piperidin-1-yl)phenyl)amino)-5-oxo-5,6-dihydropyrimido[4,5-d]pyridazin-2-yl)piperidin-4-yl)acetonitrile]	< 10 nM	< 10 nM
CN1CCN(c2ccc(Nc3nc(N4CCCCCC4)nc4cn[nH]c(=O)c34)cc2)CC1 [Example 247, 2-(azepan-1-yl)-4-((4-(4-methylpiperazin-1-yl)phenyl)amino)pyrimido[4,5-d]pyridazin-5(6H)-one]	< 10 nM	< 10 nM
